Columns and labels:
Type in all cases: cell-based, Chinese hamster
[1] = system: CT60 cells; assay: Filipin binding assay, average filipin intensity and staining pattern; details: for Average Filipin Assay @ 10 μM dose Fraction of Control: compounds from secondary library
Experimental: We developed assays for correction of the NPC phenotype in CHO cell lines using filipin, which binds to non-esterified cholesterol and has been used to visualize the free cholesterol content in NPC cells. The initial screens were carried out in CT60 cells, which express a mutated hamster NPC1 protein and a gain of function mutation in SCAP (42). These cells cannot traffic LDL-derived cholesterol out of late endosomes, and large amounts of cholesterol accumulate in LSO compartments. FIGS. 1A-B show images of filipin staining in a control CHO cell line, TRVb1 (45) (FIG. 1A) and in CT60 cells (FIG. 1B). It can be seen that the CT60 cells show much more filipin staining than control cells and that the fluorescence in CT60 cells is concentrated in peri-nuclear organelles.
For screening, images were acquired using a Discovery-1 automated microscopy system with a 10× objective and corrected for background and shading as described in Methods. Two thresholds were set for filipin staining, a low threshold to include all cell areas, and a high threshold for the strong filipin staining in the peri-nuclear LSOs. The threshold values were set for each plate from analysis of 64 images in 32 wells of untreated CT60 cells. […] In developing the low threshold, we compared the outlines based on the thresholded cell images with transmitted light images, and the thresholds provided good agreement with the transmitted light cell boundaries.
As a simple measure of the intensity of filipin staining, we measured the filipin intensity per pixel above the threshold. The conditions of filipin labeling (time and concentration) were adjusted to optimize the discrimination between the CT60 cells and control TRVb1 cells. […] The quality of the assay for screening is expressed in terms of a statistical parameter Z′(46):
Using the above screening technique, we screened a library of 14,956 compounds added to cells for 16 hours at a final concentration of 10 μM, using a single well for each compound. Prior to application of the compounds, cells were grown in normal tissue culture medium containing 10% FBS, so the LSOs were filled with cholesterol (FIG. 1B). The cells were then imaged and analyzed using the average filipin intensity assay and the LSO compartment assay. In general, the two analyses identified similar compounds that reduced the filipin labeling.
Compound addition: The library compounds were formatted for screening in the Rockefeller University High Throughput Screening Facility. Cells were treated with the compounds from the chemical library one day after plating. We added […] of each compound (5 mM stock in DMSO) to 25 μl of screening Medium S composed of medium A supplemented with 1% FBS and 20 mM 4-(2-hydroxyethyl)-1-pipiperazine ethane sulphonic acid (HEPES) in Falcon 384-well V-bottomed polypropylene plates using a Packard MiniTrak™ robotic liquid handling system. To obtain ˜10 μM final concentration, 23 μl of the premixed compounds were dispensed into the plates containing cells and […] of culture medium A. For primary screening, 352 test compounds were added to each plate, and the remaining 32 wells were used as a control with only DMSO added. All plates were incubated with compounds for 16 h at 37° C. Plates were then washed three times with phosphate buffered saline pH 7.4 (PBS) using a Bio-Tek Elx405 plate washer (Bio-Tek Instruments Inc., Winooski, Vt.). For each wash cycle, […] of PBS was dispensed followed by aspiration with a residual volume of 16 μl per well. Finally, cells were fixed with 1.5% PFA in PBS for 20 min at room temperature, followed by 3 more washes with PBS.
Fluorescence labeling. To the fixed cells, filipin was added at a final concentration of 50 μg/ml in PBS for 45 m at room temperature to label free cholesterol. Cells were finally washed three times with PBS, and images were acquired immediately after labeling. […]

[2] = system: 25RA CHO cells; assay: 3H cholesterol efflux assay on 25RA CHO cells; details: 10 μM, overnight chase
Experimental: 25RA CHO cells were incubated with 10 μM concentrations of compound 2-a-1, 2-a-3,2-a-8, 2-a-9, and 2-a-13. Cells were loaded with ^3H cholesterol and then chased overnight in the presence or absence of the various compounds. The media over the cells were removed, and radioactivity released from the cells was measured. The cells were then solubilized, and radioactivity remaining in the cells was measured. […] The 25-RA cells do have a defect in SCAP, which alters cholesterol homeostasis, including increased synthesis of cholesterol.

[3] = system: CT60 cells; assay: DiI-LDL uptake; details: DiI-LDL 6 μg/ml, compounds 10 μM, 20 hours, ±SEM
Experimental: CT60 cells were grown to 70% confluency in 96 well special optics plates (Corning, Inc., Corning, N.Y.). After 24 hours, cells were incubated with DiI-LDL (6 μg/ml) and hit compounds (10 μM) in screening medium supplemented with 20 mM HEPES. Each compound was added to 8 wells and an equivalent amount of DMSO with DiI-LDL was added to control wells. After 20 h, cells were washed three times with PBS, fixed with 1.5% PFA for 20 min, and stained with 50 μg/ml filipin for 45 min. Images were acquired using the Discovery-1 automatic fluorescence microscope at 20× magnification. DiI-LDL images were acquired using 535 nm/40 nm excitation filter and 610 nm/60 nm band pass with a Chroma 51001bs DiChroic filter. Filipin images were acquired as described above. Images were acquired for 4 sites per well, yielding 32 images per compound. The DiI-LDL images were background and shade corrected as described above. A low threshold was set to define the cell area based on filipin images. Finally, the average DiI-LDL intensity was measured per cell area.
Cells were incubated with DiI-LDL (6 μg/ml) in the presence of compounds (10 μM) for 20 hours. The intensity per unit cell area was measured as described in Methods. Values are normalized to the intensity per cell area for control (solvent-treated) cells. Values are based on averages from 32 images from 8 wells for each condition. ±SEM.

SMILES | Average filipin intensity Fraction of control ([1]; 10 μM, 14 hit compounds from primary library) | efflux of cholesterol [2] | DiI Intensity/cell area Fraction of control [3] | Average Filipin Assay @ 10 μM dose Fraction of Control [1]
CCOc1cccc2cc(-c3csc(Nc4cccc(C(F)(F)F)c4)n3)c(=O)oc12 [Compound 1-a-14] | 1.24 ± 0.04 Fraction of control | – | – | –
CCN(CC)c1ccc(C=C2SC(=S)N(c3ccc(OC)cc3)C2=O)cc1 [Compound 2-a-3] | – | promote efflux of cholesterol | 0.62 ± 0.01 Fraction of control | 0.75 ± 0.01 Fraction of Control
COc1ccccc1Nc1nc(Nc2ccccc2OC)nc(Nc2ccccc2OC)n1 [Compound 2-a-9] | – | promote efflux of cholesterol | 0.85 ± 0.01 Fraction of control | 0.74 ± 0.01 Fraction of Control
FC(F)(F)COc1nc(NN=Cc2cccc(I)c2)nc(N(c2ccccc2)c2ccccc2)n1 [Compound 2-a-12] | – | – | 0.72 ± 0.01 Fraction of control | 0.87 ± 0.01 Fraction of Control
O=[N+]([O-])c1cccc(C=NNc2nc(Nc3cccc4ccccc34)nc(N(c3ccccc3)c3ccccc3)n2)c1 [Compound 2-a-13] | – | promote efflux of cholesterol | 0.72 ± 0.01 Fraction of control | 0.75 ± 0.02 Fraction of Control
C=CCN1C(=O)C(=Cc2cc(C)n(-c3ccccc3)c2C)C(C(=O)OC)=C1C [Compound 2-a-15] | – | – | 1.00 ± 0.01 Fraction of control | 0.79 ± 0.01 Fraction of Control

Reference: patent publication US20090012148A1, “REDUCING CELLULAR CHOLESTEROL LEVELS AND/OR TREATING OR PREVENTING PHOSPHOLIPIDOSIS” (priority 2005, published 2009)
